# From patent US20260274814A1, “THIENYL COMPOUNDS FOR THE TREATMENT OF A CENTRAL NERVOUS SYSTEM DISEASE OR DISORDER” (Coreterra Therapeutics, Inc., priority 2023, published 2026)
# Counter-ions that a name gives are not always drawn. Like-named read-outs stand apart in the source and are kept apart here.
# Tested on: mice
# Assay: Neuropharmacological Assay (SmartCube): automated behavioral signature of compound-treated mice compared with a database of reference drug classes
# Assay type: in vivo
# Conditions: for minimal effective dose: Mus musculus, ip, read-out: MED; for minimal effective dose / MED: minimal effective dose: dose having 45% or more total activity in SmartCube, i.p., that dose is shown
# In short: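 Dose-response work typically spanned 0.3–10 mpk, widened or narrowed to obtain a full curve, with i.p. administration 15 min pre-test. MED is defined as the dose producing ≥45% total SmartCube activity; single-dose entries list the tested dose.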
# [1] = SmartCube class probability, 3.0 mg/kg i.p., 15 min before test
# [2] = SmartCube class probability, 3.0 mg/kg i.p., 15 min before test, 3 mg/kg
# [3] = SmartCube probability class, 3.0 mg/kg dose, i.p. 15 min before the behavioral test
Compound,minimal effective dose (if only one dose tested),AD [1],AG [1],AN [1],AP [1],AX [1],CE [1],HL [1],MS [1],PS [1],SH [1],UK [1],also measured
"NC1CCc2c(Cl)csc2C1 (stereo not drawn) [Compound 217, 3-chloro-4,5,6,7-tetrahydrobenzothiophen-6-amine hydrochloride]",< 3 mg/kg,ND (^ <4%),ND (^ <4%),ND (^ <4%),+ (≥4%),++ (≥24%),ND (^ <4%),+ (≥4%),ND (^ <4%),++ (≥24%),ND (^ <4%),+ (≥4%),–
"NC1CCc2sc(Cl)c(Cl)c2C1 (stereo not drawn) [Compound 219, 2,3-dichloro-4,5,6,7-tetrahydrobenzothiophen-5-amine hydrochloride]",> 3 mg/kg,ND (^ <4%),ND (^ <4%),ND (^ <4%),ND (^ <4%),ND (^ <4%),ND (^ <4%),ND (^ <4%),ND (^ <4%),ND (^ <4%),ND (^ <4%),++ (≥24%),–
"CNC1CCc2sc(Cl)c(Cl)c2C1 (stereo not drawn) [Compound 220, 2,3-dichloro-N-methyl-4,5,6,7-tetrahydrobenzothiophen-5-amine hydrochloride]",> 3 mg/kg,ND (^ <4%),ND (^ <4%),ND (^ <4%),ND (^ <4%),ND (^ <4%),ND (^ <4%),ND (^ <4%),ND (^ <4%),ND (^ <4%),ND (^ <4%),++ (≥24%),–
"NC1COc2c(C(F)(F)F)csc2C1 (stereo not drawn) [Compound 221, 3-(trifluoromethyl)-6,7-dihydro-5H-thieno[3,2-b]pyran-6-amine hydrochloride]",3 mg/kg,ND (^ <4%),ND (^ <4%),+ (≥4%),ND (^ <4%),++ (≥24%),ND (^ <4%),+ (≥4%),ND (^ <4%),ND (^ <4%),ND (^ <4%),++ (≥24%),–
"CNC1COc2c(Cl)csc2C1 (stereo not drawn) [Compound 222, 3-chloro-N-methyl-6,7-dihydro-5H-thieno[3,2-b]pyran-6-amine hydrochloride]",< 3 mg/kg,ND (^ <4%),ND (^ <4%),ND (^ <4%),++++ (≥74%),ND (^ <4%),ND (^ <4%),ND (^ <4%),ND (^ <4%),ND (^ <4%),ND (^ <4%),ND (^ <4%),–
"CNC1COc2c(F)csc2C1 (stereo not drawn) [Compound 225, 3-fluoro-N-methyl-6,7-dihydro-5H-thieno[3,2-b]pyran-6-amine hydrochloride]",< 3 mg/kg,ND (^ <4%),ND (^ <4%),ND (^ <4%),++++ (≥74%),ND (^ <4%),ND (^ <4%),ND (^ <4%),ND (^ <4%),ND (^ <4%),ND (^ <4%),ND (^ <4%),–
"Cc1csc2c1OCC(N)C2 (stereo not drawn) [Compound 228, 3-methyl-6,7-dihydro-5H-thieno[3,2-b]pyran-6-amine hydrochloride]",1 mg/kg,ND (^ <4%),ND (^ <4%),ND (^ <4%),ND (^ <4%),ND (^ <4%),ND (^ <4%),ND (^ <4%),ND (^ <4%),ND (^ <4%),ND (^ <4%),ND (^ <4%),–
"NC1COc2c(C3CC3)csc2C1 (stereo not drawn) [Compound 229, 3-cyclopropyl-6,7-dihydro-5H-thieno[3,2-b]pyran-6-amine hydrochloride]",3 mg/kg,–,ND (^ <4%),ND (^ <4%),ND (^ <4%),++++ (≥74%),ND (^ <4%),+ (≥4%),ND (^ <4%),ND (^ <4%),ND (^ <4%),ND (^ <4%),–
"CNC1COc2sccc2C1 (stereo not drawn) [Compound 234, N-methyl-3,4-dihydro-2H-thieno[2,3-b]pyran-3-amine hydrochloride]",1 mg/kg,ND (^ <4%),ND (^ <4%),ND (^ <4%),++++ (≥74%),+ (≥4%),ND (^ <4%),ND (^ <4%),ND (^ <4%),ND (^ <4%),ND (^ <4%),ND (^ <4%),–
"CNC1COc2c(C3CC3)csc2C1 (stereo not drawn) [Compound 235, 3-cyclopropyl-N-methyl-6,7-dihydro-5H-thieno[3,2-b]pyran-6-amine hydrochloride]",3 mg/kg,++++ (≥74%),ND (^ <4%),ND (^ <4%),ND (^ <4%),ND (^ <4%),ND (^ <4%),ND (^ <4%),ND (^ <4%),ND (^ <4%),ND (^ <4%),ND (^ <4%),–
"CNC1(C)COc2c(C)csc2C1.Cl (stereo not drawn) [Compound 239, N, 3,6-trimethyl-6,7-dihydro-5H-thieno[3,2-b]pyran-6-amine hydroachloride]",–,–,ND (^ <4%),ND (^ <4%),ND (^ <4%),ND (^ <4%),ND (^ <4%),ND (^ <4%),ND (^ <4%),ND (^ <4%),ND (^ <4%),–,AD [2]: ND (^ <4%); UK [2]: ++ (≥24%); MED (if only one dose tested): >3 mpk
"CNC1(C)COc2c(C)csc2C1.Cl (stereo not drawn) [Compound 240, N, 3,6-trimethyl-6,7-dihydro-5H-thieno[3,2-b]pyran-6-amine hydroachloride]",–,–,ND (^ <4%),ND (^ <4%),ND (^ <4%),ND (^ <4%),ND (^ <4%),ND (^ <4%),ND (^ <4%),ND (^ <4%),ND (^ <4%),–,AD [2]: + (≥4%); UK [2]: +++ (≥49%); MED (if only one dose tested): 3 mpk
"CNC1COc2c(C)csc2C1 (stereo not drawn) [Compound 247, N, 3-dimethyl-6,7-dihydro-5H-thieno[3,2-b]pyran-6-amine hydrochloride]",3 mg/kg,ND (^ <4%),ND (^ <4%),ND (^ <4%),++++ (≥74%),ND (^ <4%),ND (^ <4%),ND (^ <4%),ND (^ <4%),ND (^ <4%),ND (^ <4%),ND (^ <4%),–
"CNC1COc2c(C(F)(F)F)csc2C1 (stereo not drawn) [Compound 248, N-methyl-3-(trifluoromethyl)-6,7-dihydro-5H-thieno[3,2-b]pyran-6-amine hydrochloride]",1 mg/kg,+++ (≥49%),–,ND (^ <4%),ND (^ <4%),ND (^ <4%),ND (^ <4%),ND (^ <4%),ND (^ <4%),ND (^ <4%),ND (^ <4%),ND (^ <4%),–
"CNC1COc2c(csc2C(F)(F)F)C1 (stereo not drawn) [Compound 260, N-methyl-7-(trifluoromethyl)-3,4-dihydro-2H-thieno[3,4-b]pyran-3-amine hydrochloride]",3 mg/kg,+ (≥4%),ND (^ <4%),ND (^ <4%),ND (^ <4%),ND (^ <4%),ND (^ <4%),ND (^ <4%),ND (^ <4%),ND (^ <4%),ND (^ <4%),+++ (≥49%),–
"CNC1(C)COc2ccsc2C1 (stereo not drawn) [Compound 266, N, 6-dimethyl-5,7-dihydrothieno[3,2-b]pyran-6-amine formate salt]",> 3 mg/kg,ND (^ <4%),ND (^ <4%),ND (^ <4%),ND (^ <4%),ND (^ <4%),ND (^ <4%),–,ND (^ <4%),ND (^ <4%),ND (^ <4%),+ (≥4%),–
"CNC1(C)COc2cc(C)sc2C1 (stereo not drawn) [Compound 285, N, 2,6-trimethyl-5,7-dihydrothieno[3,2-b]pyran-6-amine hydrochloride]",–,–,–,–,–,–,–,–,–,–,–,–,minimal effective dose (if only one dose was tested): 3 mg/kg; AD [3]: ND (^ <4%); AG [3]: ND (^ <4%); AN [3]: ND (^ <4%); AP [3]: ND (^ <4%); AX [3]: ND (^ <4%); CE [3]: ND (^ <4%); HL [3]: ND (^ <4%); MS [3]: ND (^ <4%); PS [3]: ND (^ <4%); SH [3]: ND (^ <4%); UK [3]: +++ (≥49%)
